Test results published in ChEMBL document CHEMBL1201861, “Genomics of Drug Sensitity in Cancer screening data, Wellcome Trust Sanger Institute”.

Legend:
Assay in all cases: cells
SW 962 = format: functional, cell-based, Homo sapiens; conditions: Homo sapiens, SW 962;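 note: growth inhibition of human SW962 cells, read out by a cell viability assay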
Description: SANGER: Inhibition of human SW962 cell growth in a cell viability assay.

EW-1 = format: functional, cell-based, Homo sapiens; conditions: Homo sapiens, EW-1
Description: SANGER: Inhibition of human EW-1 cell growth in a cell viability assay.

SW1463 = format: functional, cell-based, Homo sapiens; conditions: Homo sapiens, SW1463;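 note: growth inhibition of SW1463 cells, determined with a cell viability assay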
Description: SANGER: Inhibition of human SW1463 cell growth in a cell viability assay.

NCI-H446 = format: functional, cell-based; conditions: Homo sapiens;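 note: growth inhibition of NCI-H446 cells determined by a cell viability assay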
Description: SANGER: Inhibition of human NCI-H446 cell growth in a cell viability assay.

PC-14 = format: functional, cell-based, Homo sapiens; conditions: Homo sapiens, PC-14;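 note: cell viability assay measuring inhibition of PC-14 cell growth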
Description: SANGER: Inhibition of human PC-14 cell growth in a cell viability assay.

PA-1 = format: functional, cell-based, Homo sapiens; conditions: Homo sapiens, PA-1;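 note: IC50 for suppression of PA-1 cell proliferation, determined with a cell viability read-out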
Description: SANGER: Inhibition of human PA-1 cell growth in a cell viability assay.

TGBC24TKB = format: functional, cell-based, Homo sapiens; conditions: Homo sapiens, TGBC24TKB;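 note: growth inhibition of human TGBC24TKB cells, read out with a cell viability assay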
Description: SANGER: Inhibition of human TGBC24TKB cell growth in a cell viability assay.

EGI-1 = format: functional, cell-based, Homo sapiens; conditions: Homo sapiens, EGI-1;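 note: cell viability readout used to gauge growth inhibition of EGI-1 cells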
Description: SANGER: Inhibition of human EGI-1 cell growth in a cell viability assay.

Lu-65 = format: functional, cell-based; conditions: Homo sapiens;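 note: growth inhibition of Lu-65 cancer cells, read out by a cell viability assay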
Description: SANGER: Inhibition of human LU-65 cell growth in a cell viability assay.

NEC8 = format: functional, cell-based, Homo sapiens; conditions: Homo sapiens, NEC8;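 note: growth inhibition of human NEC8 cells, read out by a cell viability assay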
Description: SANGER: Inhibition of human NEC8 cell growth in a cell viability assay.

PSN1 = format: functional, cell-based, Homo sapiens; conditions: Homo sapiens, PSN1;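 note: suppression of growth of human PSN1 cells, read out by a cell viability assay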
Description: SANGER: Inhibition of human PSN1 cell growth in a cell viability assay.

NB14 = format: functional, cell-based; conditions: Homo sapiens;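 note: growth inhibition of NB14 cells measured with a cell viability assay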
Description: SANGER: Inhibition of human NB14 cell growth in a cell viability assay.

HLE = format: functional, cell-based, Homo sapiens; conditions: Homo sapiens, HLE;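 note: growth inhibition of human HLE cells, read out by a cell viability assay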
Description: SANGER: Inhibition of human HLE cell growth in a cell viability assay.

KY821 = format: functional, cell-based; conditions: Homo sapiens;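 note: growth inhibition of human KY821 cells, read out by a cell viability assay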
Description: SANGER: Inhibition of human KY821 cell growth in a cell viability assay.

LK-2 = format: functional, cell-based, Homo sapiens; conditions: Homo sapiens, LK-2;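 note: growth inhibition of LK-2 cells, read out with a viability assay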
Description: SANGER: Inhibition of human LK-2 cell growth in a cell viability assay.

HCC1937 = format: functional, cell-based, Homo sapiens; conditions: Homo sapiens, HCC1937;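 note: growth inhibition measured with a cell viability read-out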
Description: SANGER: Inhibition of human HCC1937 cell growth in a cell viability assay.

SAS = format: functional, cell-based, Homo sapiens; conditions: Homo sapiens, SAS;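 note: growth inhibition of SAS cells, read out with a cell viability assay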
Description: SANGER: Inhibition of human SAS cell growth in a cell viability assay.

EOL1 = format: functional, cell-based; conditions: Homo sapiens;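 note: growth inhibition of EoL-1 cells, read out by a cell viability assay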
Description: SANGER: Inhibition of human EoL-1-cell cell growth in a cell viability assay.

NCI-H661 = format: functional, cell-based, Homo sapiens; conditions: Homo sapiens, NCI-H661;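 note: cell viability assay read-out, IC50 being the concentration that inhibits growth of the cells by half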
Description: SANGER: Inhibition of human NCI-H661 cell growth in a cell viability assay.

SK-MEL-1 = format: functional, cell-based; conditions: Homo sapiens;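 note: growth inhibition of human SK-MEL-1 cells, read out by a cell viability assay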
Description: SANGER: Inhibition of human SK-MEL-1 cell growth in a cell viability assay.

NB17 = format: functional, cell-based; conditions: Homo sapiens;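 note: growth inhibition of NB17 cells, read out with a cell viability assay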
Description: SANGER: Inhibition of human NB17 cell growth in a cell viability assay.

P12-Ichikawa = format: functional, cell-based; conditions: Homo sapiens
KU-19-19 = format: functional, cell-based, Homo sapiens; conditions: Homo sapiens, KU-19-19
Description: SANGER: Inhibition of human KU-19-19 cell growth in a cell viability assay.

NCI-H1395 = format: functional, cell-based, Homo sapiens; conditions: Homo sapiens, NCI-H1395;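 note: cell viability assay read-out quantifying reduced proliferation of human NCI-H1395 cells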
Description: SANGER: Inhibition of human NCI-H1395 cell growth in a cell viability assay.

SiHa = format: functional, cell-based, Homo sapiens; conditions: Homo sapiens, SiHa;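 note: Viability-based readout of growth inhibition in SiHa cells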
Description: SANGER: Inhibition of human SiHa cell growth in a cell viability assay.

NCI-H1993 = format: functional, cell-based, Homo sapiens; conditions: Homo sapiens, NCI-H1993;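 note: growth inhibition of the cancer cell line, assessed with a cell viability assay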
Description: SANGER: Inhibition of human NCI-H1993 cell growth in a cell viability assay.

J82 = format: functional, cell-based; conditions: Homo sapiens;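 note: growth inhibition of J82 cells, read out with a cell viability assay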
Description: SANGER: Inhibition of human J82 cell growth in a cell viability assay.

EFO-27 = format: functional, cell-based, Homo sapiens; conditions: Homo sapiens, EFO-27;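 note: growth inhibition of EFO-27 cells, read out with a cell viability assay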
Description: SANGER: Inhibition of human EFO-27 cell growth in a cell viability assay.

TE-9 = format: functional, cell-based, Homo sapiens; conditions: Homo sapiens, TE-9;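 note: cell growth inhibition, measured with a cell viability readout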
Description: SANGER: Inhibition of human TE-9 cell growth in a cell viability assay.

ES1 = format: functional, cell-based, Homo sapiens; conditions: Homo sapiens, ES1;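 note: growth inhibition of ES1 cells, read out with a cell viability assay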
Description: SANGER: Inhibition of human ES1 cell growth in a cell viability assay.

5637 = format: functional, cell-based, Homo sapiens; conditions: Homo sapiens
Description: SANGER: Inhibition of human 5637 cell growth in a cell viability assay.

HCC2218 = format: functional, cell-based; conditions: Homo sapiens;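 note: cell viability assay read-out, with IC50 given as the concentration that inhibits growth of the cell line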
Description: SANGER: Inhibition of human HCC2218 cell growth in a cell viability assay.

RMG-I = format: functional, cell-based, Homo sapiens; conditions: Homo sapiens, RMG-I;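 note: growth inhibition of human RMG-I cells, read out with a cell viability assay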
Description: SANGER: Inhibition of human RMG-I cell growth in a cell viability assay.

LS-1034 = format: functional, cell-based, Homo sapiens; conditions: Homo sapiens, LS-1034
Description: SANGER: Inhibition of human LS-1034 cell growth in a cell viability assay.

CGTH-W-1 = format: functional, cell-based, Homo sapiens; conditions: Homo sapiens, CGTH-W-1;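 note: growth inhibition of human CGTH-W-1 cells measured by cell viability assay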
Description: SANGER: Inhibition of human CGTH-W-1 cell growth in a cell viability assay.

MC-IXC = format: functional, cell-based, Homo sapiens; conditions: Homo sapiens, MC-IXC;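 note: growth inhibition of MC-IXC cells, read out with a cell viability assay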
Description: SANGER: Inhibition of human MC-IXC cell growth in a cell viability assay.

ML-2 = format: functional, cell-based; conditions: Homo sapiens;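 note: growth inhibition of ML-2 cells, measured with a cell viability readout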
Description: SANGER: Inhibition of human ML-2 cell growth in a cell viability assay.

A-427 = format: functional, cell-based, Homo sapiens; conditions: Homo sapiens, A-427;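 note: growth inhibition of human A-427 cells, read out by a cell viability assay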
Description: SANGER: Inhibition of human A427 cell growth in a cell viability assay.

NCI-H1770 = format: functional, cell-based; conditions: Homo sapiens;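 note: growth inhibition of NCI-H1770 cells determined with a viability readout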
Description: SANGER: Inhibition of human NCI-H1770 cell growth in a cell viability assay.

786-0 = format: functional, cell-based, Homo sapiens; conditions: Homo sapiens
Description: SANGER: Inhibition of human 786-0 cell growth in a cell viability assay.

EW-11 = format: functional, cell-based, Homo sapiens; conditions: Homo sapiens, EW-11;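 note: growth inhibition of human EW-11 cells, measured with a cell viability assay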
Description: SANGER: Inhibition of human EW-11 cell growth in a cell viability assay.

MDA-MB-415 = format: functional, cell-based; conditions: Homo sapiens
OVCAR-8 = format: functional, cell-based, Homo sapiens; conditions: Homo sapiens, OVCAR-8;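 note: growth inhibition of human OVCAR-8 cells, read out by a cell viability assay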
Description: SANGER: Inhibition of human OVCAR-8 cell growth in a cell viability assay.

DSH1 = format: functional, cell-based, Homo sapiens; conditions: Homo sapiens, DSH1;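 note: growth inhibition of human DSH1 cells, measured with a cell viability readout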
Description: SANGER: Inhibition of human DSH1 cell growth in a cell viability assay.

CHL-1 = format: functional, cell-based, Homo sapiens; conditions: Homo sapiens, CHL-1;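 note: cell growth inhibition, read out with a cell viability assay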
Description: SANGER: Inhibition of human CHL-1 cell growth in a cell viability assay.

COLO-320-HSR = format: functional, cell-based; conditions: Homo sapiens;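 note: growth inhibition of COLO-320-HSR cells, determined with a cell viability assay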
Description: SANGER: Inhibition of human COLO-320-HSR cell growth in a cell viability assay.

SNU1 = format: functional, cell-based; conditions: Homo sapiens;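 note: growth inhibition of human NCI-SNU-1 cells, measured with a cell viability assay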
Description: SANGER: Inhibition of human NCI-SNU-1 cell growth in a cell viability assay.

HGC-27 = format: functional, cell-based, Homo sapiens; conditions: Homo sapiens, HGC-27;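 note: growth inhibition of human HGC-27 cells, read out in a cell viability assay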
Description: SANGER: Inhibition of human HGC-27 cell growth in a cell viability assay.

CAKI-1 = format: functional, cell-based, Homo sapiens; conditions: Homo sapiens, CAKI-1;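 note: growth inhibition of CAKI-1 cells, measured by a cell viability assay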
Description: SANGER: Inhibition of human CAKI-1 cell growth in a cell viability assay.

With `COc1cc(F)c(F)c(Nc2ccc(I)cc2F)c1NS(=O)(=O)C1(CC(O)CO)CC1` (stereo not drawn) the IC50 (SW 962) was 1.5 µM, the IC50 (EW-1) was over 5 µM and the IC50 (SW1463) was 4.13 µM. For the same molecule, the IC50 (NCI-H446) was over 5 µM, the IC50 (PC-14) was 4.17 µM and the IC50 (PA-1) was over 5 µM. It also gave an IC50 (TGBC24TKB) of over 5 µM, an IC50 (EGI-1) of 1.31 µM and an IC50 (Lu-65) of 3.28 µM. The IC50 (NEC8) was over 5 µM, the IC50 (PSN1) was 0.198 µM and the IC50 (NB14) was over 5 µM. The IC50 (HLE) was over 5 µM, the IC50 (KY821) was 0.107 µM and the IC50 (LK-2) was over 5 µM. For the same molecule, the IC50 (HCC1937) was over 5 µM, the IC50 (SAS) was 3.94 µM and the IC50 (EOL1) was 0.399 µM. It also gave an IC50 (NCI-H661) of over 5 µM, an IC50 (SK-MEL-1) of over 5 µM and an IC50 (NB17) of over 5 µM. It also gave an IC50 (P12-Ichikawa) of 1.78 µM, an IC50 (KU-19-19) of 0.366 µM and an IC50 (NCI-H1395) of over 5 µM. It also gave an IC50 (SiHa) of over 5 µM, an IC50 (NCI-H1993) of over 5 µM and an IC50 (J82) of over 5 µM. For the same molecule, the IC50 (EFO-27) was 0.962 µM, the IC50 (TE-9) was over 5 µM and the IC50 (ES1) was over 5 µM. For the same molecule, the IC50 5637 was over 5 µM, the IC50 (HCC2218) was over 5 µM and the IC50 (RMG-I) was over 5 µM. It also gave an IC50 (LS-1034) of 1.62 µM, an IC50 (CGTH-W-1) of 2.73 µM and an IC50 (MC-IXC) of over 5 µM. The IC50 (ML-2) was 0.503 µM, the IC50 (A-427) was 4.46 µM and the IC50 (NCI-H1770) was over 5 µM. For the same molecule, the IC50 (786-0) was 2.37 µM, the IC50 (EW-11) was over 5 µM and the IC50 (MDA-MB-415) was over 5 µM. For the same molecule, the IC50 (OVCAR-8) was over 5 µM, the IC50 (DSH1) was over 5 µM and the IC50 (CHL-1) was 1.18 µM. For the same molecule, the IC50 (COLO-320-HSR) was over 5 µM, the IC50 (SNU1) was 1.24 µM and the IC50 (HGC-27) was over 5 µM. For the same molecule, the IC50 (CAKI-1) was over 5 µM.
For `O=C1N=C(NCc2cccs2)S/C1=C\c1ccc2ncccc2c1`, the IC50 (SW 962) was over 5 µM, the IC50 (EW-1) was over 5 µM and the IC50 (SW1463) was over 5 µM. The IC50 (NCI-H446) was over 5 µM, the IC50 (PC-14) was over 5 µM and the IC50 (PA-1) was 1.23 µM. For the same molecule, the IC50 (TGBC24TKB) was over 5 µM, the IC50 (EGI-1) was over 5 µM and the IC50 (Lu-65) was over 5 µM. The IC50 (NEC8) was 4.47 µM, the IC50 (PSN1) was 4.11 µM and the IC50 (NB14) was over 5 µM. The IC50 (HLE) was over 5 µM, the IC50 (KY821) was over 5 µM and the IC50 (LK-2) was over 5 µM. The IC50 (HCC1937) was over 5 µM, the IC50 (SAS) was over 5 µM and the IC50 (EOL1) was over 5 µM. It also gave an IC50 (NCI-H661) of over 5 µM, an IC50 (SK-MEL-1) of over 5 µM and an IC50 (NB17) of over 5 µM. The IC50 (P12-Ichikawa) was over 5 µM, the IC50 (KU-19-19) was over 5 µM and the IC50 (NCI-H1395) was over 5 µM. It also gave an IC50 (SiHa) of over 5 µM, an IC50 (NCI-H1993) of over 5 µM and an IC50 (J82) of over 5 µM. The IC50 (EFO-27) was over 5 µM, the IC50 (TE-9) was over 5 µM and the IC50 (ES1) was over 5 µM. It also gave an IC50 5637 of 3.09 µM, an IC50 (HCC2218) of over 5 µM and an IC50 (RMG-I) of over 5 µM. The IC50 (LS-1034) was over 5 µM, the IC50 (CGTH-W-1) was over 5 µM and the IC50 (MC-IXC) was over 5 µM. The IC50 (ML-2) was over 5 µM, the IC50 (A-427) was over 5 µM and the IC50 (NCI-H1770) was over 5 µM. It also gave an IC50 (786-0) of over 5 µM, an IC50 (EW-11) of over 5 µM and an IC50 (MDA-MB-415) of over 5 µM. The IC50 (OVCAR-8) was over 5 µM, the IC50 (DSH1) was over 5 µM and the IC50 (CHL-1) was over 5 µM. It also gave an IC50 (COLO-320-HSR) of over 5 µM, an IC50 (SNU1) of 0.731 µM and an IC50 (HGC-27) of over 5 µM. The IC50 (CAKI-1) was over 5 µM.
